According to article PMC7699649 (Communications Biology, 2020):
No end group written: not given here.

Key:
[1] = tested on: Acinetobacter baumannii ATCC 17978; settings: Supplementary Table 3; medium not stated; at least three biological replicates
Protocol: (§1) The antibacterial activity of the peptides was assessed through a modified twofold broth microdilution assay with modal MICs generated from at least three biological replicate experiments[20],[25]. The method broadly followed EUCAST methodology, with non-cation-adjusted Mueller Hinton or RPMI replacing cation-adjusted Mueller Hinton. Peptides and antibiotics were diluted in a twofold dilution in media down a 96 well plate. Bacteria were then added, back-diluted from an overnight culture, at a starting concentration of 5 × 10^5 CFU/ml. Plates were incubated, static at 37 C, for 20 h and the OD600 was determined using a Clariostar plate reader (BMG Labtech). […] Synergy was measured using standard microdilution checkerboard assays under the same conditions as the MICs[54]. Twofold dilution series of each peptide or antibiotic were prepared in separate 96 well plates and then combined into one before addition of bacteria. The growth/no growth interface was determined using the same definition as the MIC. The fractional inhibitory concentration was calculated from the most synergistic well on the plate for three independent repeats, and presented as the average +/− standard deviation. FIC is calculated as (MIC of compound A in combination with B/MIC of compound A alone) + (MIC of compound B in combination with A/MIC of compound B alone). MICs were determined on the same plates as the FICs to increase reproducibility.

[2] = tested on: EMR Staphylococcus aureus-16 NCTC 13277; settings: Supplementary Table 3; medium not stated; at least three biological replicates
Protocol: as §1

[3] = tested on: Pseudomonas aeruginosa PAO1; settings: Supplementary Table 3; medium not stated; at least three biological replicates
Protocol: as §1

[4] = tested on: VS Enterococcus faecalis NCTC 775; settings: Supplementary Table 3; medium not stated; at least three biological replicates
Protocol: as §1

[5] = tested on: Acinetobacter baumannii AYE; settings: Supplementary Table 3; medium not stated; at least three biological replicates
Protocol: as §1

[6] = tested on: MS Staphylococcus aureus ATCC 9144; settings: Supplementary Table 3; medium not stated; at least three biological replicates
Protocol: as §1

[7] = tested on: VR Enterococcus faecium NCTC 12204; settings: Supplementary Table 3; medium not stated; at least three biological replicates
Protocol: as §1

[8] = tested on: Klebsiella pneumoniae NCTC 13368; settings: Supplementary Table 3; medium not stated; at least three biological replicates
Protocol: as §1

[9] = tested on: Pseudomonas aeruginosa NCTC 13437; settings: Supplementary Table 3; medium not stated; at least three biological replicates
Protocol: as §1

[10] = tested on: EMR Staphylococcus aureus-15 NCTC 13616; settings: Supplementary Table 3; medium not stated; at least three biological replicates
Protocol: as §1

Klebsiella pneumoniae M6 = settings: Supplementary Table 3; medium not stated; at least three biological replicates
Protocol: as §1

[11] = tested on: Escherichia coli NCTC 12923; settings: Supplementary Table 3; medium not stated; at least three biological replicates
Protocol: as §1

human red blood cells = experiment: Haemolysis assay; type: cell-based; settings: human red blood cells in PBS, 1 h 37 °C, OD550, relative to 0.1% Triton-X-100; for concentration at which 10% haemolysis is achieved: three biological replicates
Protocol: Haemolysis was tested by incubating titrations of AMPs in PBS with freshly collected human red blood cells for 1 h at 37 °C. Control wells were treated with 0.1% Triton-X-100 to ensure complete lysis, or PBS-only to represent no lysis. Samples were spun down to remove non-lysed cells and the OD550 of the supernatant was measured using a Clariostar plate reader. The percentage of haemolysis was calculated as % haemolysis = (AP − AB)/(AC − AB) × 100, where AP is the absorbance value for a known peptide concentration, AC is the absorbance of the 0.1% Triton-X-100 control, AB is the absorbance of the PBS control. Data presented are averages and standard error from three biological replicate experiments.

Row | Molecule | Antibiogram, antibiotic concentration (MIC) [1] [mg/L] | Antibiogram, antibiotic concentration (MIC) [2] [mg/L] | Antibiogram, antibiotic concentration (MIC) [3] [mg/L] | Antibiogram, antibiotic concentration (MIC) [4] [mg/L] | Antibiogram, antibiotic concentration (MIC) [5] [mg/L] | Antibiogram, antibiotic concentration (MIC) [6] [mg/L] | Antibiogram, antibiotic concentration (MIC) [7] [mg/L] | Antibiogram, antibiotic concentration (MIC) [8] [mg/L] | Antibiogram, antibiotic concentration (MIC) [9] [mg/L] | Antibiogram, antibiotic concentration (MIC) [10] [mg/L] | Antibiogram, antibiotic concentration (MIC) (Klebsiella pneumoniae M6) [mg/L] | Antibiogram, antibiotic concentration (MIC) [11] [mg/L] | haemolysis at the highest concentration tested 400 µg/ml (human red blood cells) | concentration at which 10% haemolysis is achieved (human red blood cells) [µg/mL]
1 | Colistin | 1 |  | 2 |  | 1 |  |  | 1 | 4 | > 128 | 2 | 0.0625 |  | 
2 | GWGSFFKKAAHAGKHAGKAALTHYL-NH2 [Pleurocidin-VA] |  |  |  |  |  |  |  |  |  |  |  |  | Neither pleurocidin-VA nor D-pleurocidin-VA induce detectable haemolysis | 
3 | GWGSFFKKAAHVGKHVGKAALTHYL-NH2 [Pleurocidin, reference compound] |  |  |  |  |  |  |  |  |  |  |  |  | 50% | 120
4 | GWGSFFRRAAHVGRHVGRAALTHYL-NH2 [Pleurocidin-KR] |  |  |  |  |  |  |  |  |  |  |  |  |  | 192

More lines, main results first:

Row | Antibiogram, antibiotic concentration (MIC) [1] [mg/L] | Antibiogram, antibiotic concentration (MIC) [2] [mg/L] | Antibiogram, antibiotic concentration (MIC) [3] [mg/L] | Antibiogram, antibiotic concentration (MIC) [4] [mg/L] | Antibiogram, antibiotic concentration (MIC) [5] [mg/L] | Antibiogram, antibiotic concentration (MIC) [6] [mg/L] | Antibiogram, antibiotic concentration (MIC) [7] [mg/L] | Antibiogram, antibiotic concentration (MIC) [8] [mg/L] | Antibiogram, antibiotic concentration (MIC) [9] [mg/L] | Antibiogram, antibiotic concentration (MIC) [10] [mg/L] | Antibiogram, antibiotic concentration (MIC) (Klebsiella pneumoniae M6) [mg/L] | Antibiogram, antibiotic concentration (MIC) [11] [mg/L] | Molecule | haemolysis at the highest concentration tested 400 µg/ml (human red blood cells) | concentration at which 10% haemolysis is achieved (human red blood cells) [µg/mL]
5 | < 0.5 | 8 | 1 | 32 | > 128 | 16 | > 128 | 512 | > 128 | 128 | < 0.5 |  | CC(C)(O/N=C(\C(=O)N[C@@H]1C(=O)N2C(C(=O)[O-])=C(C[n+]3ccccc3)CS[C@H]12)c1csc(N)n1)C(=O)O [Ceftazidime] |  | 
6 | 0.5 | 128 | 0.5 | 2 | 128 | 1 | 1 | 0.5 | 64 | 64 | < 0.5 | ≤ 0.125 | O=C(O)c1cn(C2CC2)c2cc(N3CCNCC3)c(F)cc2c1=O [Ciprofloxacin] |  | 
7 | 0.5 | 0.25 | 4 | 4 | > 512 | 0.25 | 4 | 4 | 256 | 0.25 | 0.25 | 1 | CNC(C)C1CCC(N)C(OC2C(N)CC(N)C(OC3OCC(C)(O)C(NC)C3O)C2O)O1 (centres unmarked) [Gentamicin] |  | 
8 | 4 | 0.25 | 2 | 4 | 64 | 0.25 to 0.5 | 64 | 64 | 64 | 0.5 | 8 | 16 | NC[C@H]1O[C@H](O[C@H]2[C@H](O)[C@@H](O[C@H]3O[C@H](CO)[C@@H](O)[C@H](N)[C@H]3O)[C@H](N)C[C@@H]2N)[C@H](N)C[C@@H]1O [Tobramycin] |  | 
